Target: human KAT6A (Homo sapiens (Human), UniProt Q92794)
Assay: KAT6 enzyme activity assay (AlphaScreen method), KAT6A
Format: biochemical
Settings: inhibition of the enzyme human KAT6A

Sequence of human KAT6A (Q92794 whole entry): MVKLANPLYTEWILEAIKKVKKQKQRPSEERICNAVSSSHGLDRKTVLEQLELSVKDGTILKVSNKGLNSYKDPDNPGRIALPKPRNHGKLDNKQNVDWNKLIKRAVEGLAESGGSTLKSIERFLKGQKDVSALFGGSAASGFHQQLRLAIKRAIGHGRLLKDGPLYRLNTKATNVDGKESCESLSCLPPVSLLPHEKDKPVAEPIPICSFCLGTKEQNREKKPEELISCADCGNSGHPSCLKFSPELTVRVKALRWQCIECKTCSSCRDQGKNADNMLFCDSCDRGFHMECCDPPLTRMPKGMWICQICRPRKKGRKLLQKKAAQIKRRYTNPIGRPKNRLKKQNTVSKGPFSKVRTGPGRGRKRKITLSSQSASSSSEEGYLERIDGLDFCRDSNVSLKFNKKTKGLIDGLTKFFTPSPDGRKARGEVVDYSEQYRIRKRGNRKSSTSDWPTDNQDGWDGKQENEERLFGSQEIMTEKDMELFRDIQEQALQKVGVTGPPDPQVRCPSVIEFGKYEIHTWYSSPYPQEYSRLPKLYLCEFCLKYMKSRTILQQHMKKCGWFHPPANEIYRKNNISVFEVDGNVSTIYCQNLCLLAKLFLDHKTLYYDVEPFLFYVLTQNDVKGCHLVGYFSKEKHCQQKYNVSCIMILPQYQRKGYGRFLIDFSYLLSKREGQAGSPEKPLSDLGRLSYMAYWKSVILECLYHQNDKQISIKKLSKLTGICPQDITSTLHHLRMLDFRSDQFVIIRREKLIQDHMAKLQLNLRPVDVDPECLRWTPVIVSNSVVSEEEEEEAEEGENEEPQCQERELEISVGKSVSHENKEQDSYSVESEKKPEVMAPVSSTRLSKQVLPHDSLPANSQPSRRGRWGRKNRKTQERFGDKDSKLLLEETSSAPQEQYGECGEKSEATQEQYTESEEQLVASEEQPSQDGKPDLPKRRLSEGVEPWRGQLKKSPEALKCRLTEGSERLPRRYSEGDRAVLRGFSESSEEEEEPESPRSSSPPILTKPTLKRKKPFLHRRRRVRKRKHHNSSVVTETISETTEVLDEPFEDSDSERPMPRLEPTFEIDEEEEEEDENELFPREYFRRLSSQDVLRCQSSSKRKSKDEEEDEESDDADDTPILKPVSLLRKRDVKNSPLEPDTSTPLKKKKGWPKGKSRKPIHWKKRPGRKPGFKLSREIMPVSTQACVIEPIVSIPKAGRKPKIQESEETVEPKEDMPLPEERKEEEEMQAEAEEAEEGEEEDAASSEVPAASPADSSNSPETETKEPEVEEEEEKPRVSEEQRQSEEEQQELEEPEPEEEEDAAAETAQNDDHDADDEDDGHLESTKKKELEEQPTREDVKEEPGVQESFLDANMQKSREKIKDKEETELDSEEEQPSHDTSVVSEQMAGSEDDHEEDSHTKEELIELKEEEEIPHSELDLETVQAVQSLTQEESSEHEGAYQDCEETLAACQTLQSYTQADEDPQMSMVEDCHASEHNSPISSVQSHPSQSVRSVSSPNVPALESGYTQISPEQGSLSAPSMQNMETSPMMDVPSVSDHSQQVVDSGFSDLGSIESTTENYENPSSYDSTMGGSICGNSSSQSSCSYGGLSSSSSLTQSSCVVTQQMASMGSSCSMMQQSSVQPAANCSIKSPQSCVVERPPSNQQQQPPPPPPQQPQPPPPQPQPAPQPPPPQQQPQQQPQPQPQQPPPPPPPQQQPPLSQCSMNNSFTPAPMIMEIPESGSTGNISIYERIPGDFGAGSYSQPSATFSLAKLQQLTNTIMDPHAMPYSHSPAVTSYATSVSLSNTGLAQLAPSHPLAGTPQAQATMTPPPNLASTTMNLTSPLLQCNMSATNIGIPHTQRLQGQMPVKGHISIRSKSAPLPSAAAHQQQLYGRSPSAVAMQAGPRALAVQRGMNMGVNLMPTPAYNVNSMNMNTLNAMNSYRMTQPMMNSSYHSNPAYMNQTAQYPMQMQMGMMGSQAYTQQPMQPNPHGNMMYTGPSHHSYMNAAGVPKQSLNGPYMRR

Row | IC50 [nM] | SMILES
1 | 0.6 | COc1cccc(OC)c1S(=O)(=O)Nc1noc2cc(Cn3cccn3)c3c(c12)OCC3 [Compound 1, N-(4-((1H-pyrazol-1-yl)methyl)-2,3-dihydrobenzofuro[7,6-d]isoxazol-8-yl)-2,6-dimethoxybenzenesulfonamide]
2 | 0.5 | COc1ccccc1S(=O)(=O)Nc1noc2cc(Cn3cccn3)c3c(c12)OCCC3 [Compound 3, N-(5-((1H-pyrazol-1-yl)methyl)-3,4-dihydro-2H-chromeno[8,7-d]isoxazol-9-yl)-2-methoxybenzenesulfonamide]
3 | 1 | COc1cccc(OC)c1S(=O)(=O)Nc1noc2cc(Cn3cccn3)c3c(c12)OC(F)(F)O3 [Compound 5, N-(4-((1H-pyrazol-1-yl)methyl)-2,2-difluoro-[1,3]dioxolo[4′,5′:5,6]benzo[1,2-d]isoxazol-8-yl)-2,6-dimethoxybenzenesulfonamide]
4 | 0.5 | CCOc1cc(C)ccc1S(=O)(=O)Nc1noc2cc(Cn3cccn3)c3c(c12)OCCC3 [Compound 7, N-(5-((1H-pyrazol-1-yl)methyl)-3,4-dihydro-2H-chromeno[8,7-d]isoxazol-9-yl)-2-ethoxy-4-methylbenzenesulfonamide]
5 | 0.7 | Cc1ccc(S(=O)(=O)Nc2noc3cc(Cn4cccn4)c4c(c23)OCCC4)c(OCC(F)(F)F)c1 [Compound 8, N-(5-((1H-pyrazol-1-yl)methyl)-3,4-dihydro-2H-chromeno[8,7-d]isoxazol-9-yl)-4-methyl-2-(2,2,2-trifluoroethoxy)benzenesulfonamide]
6 | 0.7 | COc1ccc(F)cc1S(=O)(=O)Nc1noc2cc(Cn3cccn3)c3c(c12)OCCC3 [Compound 9, N-(5-((1H-pyrazol-1-yl)methyl)-3,4-dihydro-2H-chromeno[8,7-d]isoxazol-9-yl)-5-fluoro-2-methoxybenzenesulfonamide]
7 | 0.9 | COc1cccc(OC(F)(F)F)c1S(=O)(=O)Nc1noc2cc(Cn3cccn3)c3c(c12)OCCC3 [Compound 10, N-(5-((1H-pyrazol-1-yl)methyl)-3,4-dihydro-2H-chromeno[8,7-d]isoxazol-9-yl)-2-methoxy-6-(trifluoromethoxy)benzenesulfonamide]
8 | 2.9 | COc1ccccc1S(=O)(=O)Nc1noc2cc(Cn3cccn3)c3c(c12)OCC3 [Compound 20, N-(4-((1H-pyrazol-1-yl)methyl)-2,3-dihydrobenzofuro[7,6-d]isoxazol-8-yl)-2-methoxybenzenesulfonamide]
9 | 4.8 | COc1cccc(OC(F)(F)F)c1S(=O)(=O)Nc1noc2cc(Cn3cccn3)c3c(c12)OCC3 [Compound 23, N-(4-((1H-pyrazol-1-yl)methyl)-2,3-dihydrobenzofuro[7,6-d]isoxazol-8-yl)-2-methoxy-6-(trifluoromethoxy)benzenesulfonamide]

Reference: US20250145637A1, “SULFONAMIDE DERIVATIVE, PREPARATION METHOD THEREFOR AND MEDICAL USE THEREOF” (Jiangsu Hengrui Pharmaceuticals Co. Ltd., priority 2021, published 2025)
